Experimental data from patent US20240182531A1, “KV1.3 Blockers” (priority 2021, published 2024).
Where a SMILES comes first, the peptide text is derived from it. Bridges are numbered along the chain shown (N, C = ends). [ ]: non-standard residue; d: D form. Nle = CCCC[C@H](N)C(=O)O

Assays:
human Kv1.1 = target: T1, human Kv1.1 (Homo sapiens, UniProt Q09470); assay: cell-based; details: ratio of patch clamp IC50 values
T1 construct: expressed in transfected cells; host or cells: CHO

human Kv1.2 = target: T2, human Kv1.2 (Homo sapiens, UniProt P16389); assay: cell-based; details: ratio of patch clamp IC50 values
T2 construct: expressed in transfected cells; host or cells: CHO
T2 sequence (P16389 whole entry): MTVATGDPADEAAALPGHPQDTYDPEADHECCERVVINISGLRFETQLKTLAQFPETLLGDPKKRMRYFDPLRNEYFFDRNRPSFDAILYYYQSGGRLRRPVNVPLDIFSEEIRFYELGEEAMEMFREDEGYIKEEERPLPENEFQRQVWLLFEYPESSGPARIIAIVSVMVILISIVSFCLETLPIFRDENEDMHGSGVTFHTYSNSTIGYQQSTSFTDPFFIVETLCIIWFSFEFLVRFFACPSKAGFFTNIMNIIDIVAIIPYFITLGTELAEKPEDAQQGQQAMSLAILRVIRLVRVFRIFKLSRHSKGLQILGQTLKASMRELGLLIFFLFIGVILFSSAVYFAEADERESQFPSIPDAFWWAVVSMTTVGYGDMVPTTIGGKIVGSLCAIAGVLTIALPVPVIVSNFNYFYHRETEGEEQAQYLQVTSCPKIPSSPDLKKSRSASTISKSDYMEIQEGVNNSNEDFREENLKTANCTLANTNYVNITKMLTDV

human Kv1.6 = target: T3, human Kv1.6 (Homo sapiens, UniProt P17658); assay: cell-based; details: ratio of patch clamp IC50 values
T3 construct: expressed in transfected cells; host or cells: CHO
T3 sequence (P17658 whole entry): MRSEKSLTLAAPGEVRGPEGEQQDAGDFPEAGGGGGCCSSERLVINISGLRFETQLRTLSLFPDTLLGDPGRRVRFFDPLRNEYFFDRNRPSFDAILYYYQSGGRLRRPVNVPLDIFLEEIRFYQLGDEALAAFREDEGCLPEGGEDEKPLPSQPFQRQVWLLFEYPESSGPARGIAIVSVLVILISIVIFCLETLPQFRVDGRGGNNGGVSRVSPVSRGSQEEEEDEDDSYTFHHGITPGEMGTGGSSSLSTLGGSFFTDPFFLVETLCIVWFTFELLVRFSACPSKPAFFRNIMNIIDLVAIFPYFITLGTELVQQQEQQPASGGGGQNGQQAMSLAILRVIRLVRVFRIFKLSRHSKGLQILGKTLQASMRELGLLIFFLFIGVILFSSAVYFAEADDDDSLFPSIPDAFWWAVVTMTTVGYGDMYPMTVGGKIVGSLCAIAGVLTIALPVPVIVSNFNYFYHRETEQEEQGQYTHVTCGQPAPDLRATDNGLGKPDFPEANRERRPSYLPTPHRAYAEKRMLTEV

Rat whole blood = Rat whole blood (Rattus norvegicus, UniProt P15384); type: cell-based; details: IL-17A release, thapsigargin, 24 Hr, at least 2 replicates
Chain of Rat whole blood (P15384 whole entry): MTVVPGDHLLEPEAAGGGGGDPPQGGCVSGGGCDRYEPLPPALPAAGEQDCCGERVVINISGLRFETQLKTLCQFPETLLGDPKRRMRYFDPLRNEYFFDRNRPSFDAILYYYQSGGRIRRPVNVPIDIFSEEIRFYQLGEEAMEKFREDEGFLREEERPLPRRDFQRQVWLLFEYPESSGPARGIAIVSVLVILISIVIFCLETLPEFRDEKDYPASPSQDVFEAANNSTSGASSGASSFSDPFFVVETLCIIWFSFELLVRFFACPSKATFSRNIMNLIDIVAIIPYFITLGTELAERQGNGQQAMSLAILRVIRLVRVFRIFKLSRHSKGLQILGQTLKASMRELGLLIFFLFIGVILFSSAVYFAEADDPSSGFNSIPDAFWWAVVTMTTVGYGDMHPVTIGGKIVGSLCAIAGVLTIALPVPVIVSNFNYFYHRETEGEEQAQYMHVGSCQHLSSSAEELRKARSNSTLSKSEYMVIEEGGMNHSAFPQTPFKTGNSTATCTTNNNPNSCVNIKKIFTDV

T1 sequence (Q09470 whole entry): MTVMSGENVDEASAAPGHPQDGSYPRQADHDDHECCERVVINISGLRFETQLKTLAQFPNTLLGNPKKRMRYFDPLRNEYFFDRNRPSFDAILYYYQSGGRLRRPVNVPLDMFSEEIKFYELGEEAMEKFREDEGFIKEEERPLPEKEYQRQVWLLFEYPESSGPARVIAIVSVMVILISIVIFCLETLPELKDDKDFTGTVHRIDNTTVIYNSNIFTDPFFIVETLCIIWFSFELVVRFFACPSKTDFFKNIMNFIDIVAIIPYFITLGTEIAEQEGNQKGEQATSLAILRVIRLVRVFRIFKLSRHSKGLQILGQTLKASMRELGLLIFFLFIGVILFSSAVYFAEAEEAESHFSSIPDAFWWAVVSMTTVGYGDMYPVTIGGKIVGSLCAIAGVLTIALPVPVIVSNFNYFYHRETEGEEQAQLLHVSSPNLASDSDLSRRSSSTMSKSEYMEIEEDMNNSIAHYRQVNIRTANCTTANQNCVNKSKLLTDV

CC[C@H](C)[C@@H]1NC(=O)[C@H](C)NC(=O)[C@H](CCCCN)NC(=O)[C@H](CC(C)C)NC(=O)[C@@H]2CSSC[C@@H](C(=O)N[C@@H](Cc3ccc(O)cc3)C(=O)N3CCC[C@H]3C(=O)N[C@@H](CCCNC(=N)N)C(N)=O)NC(=O)[C@H](CCCCN)NC(=O)[C@@H]3CSSC[C@H](NC(=O)[C@H](CCC(=O)O)NC(=O)[C@H](C(C)C)NC(=O)[C@H](CO)NC(=O)[C@H](C)NC(=O)[C@H](CO)NC(=O)[C@@H](NC(=O)[C@H](CCCNC(=N)N)NC(=O)[C@H](CCSC)NC(=O)[C@H](CC(=O)O)NC(=O)[C@H](CCSC)NC(=O)[C@@H](N)CC(N)=O)CSSC[C@H](NC(=O)[C@H](CCCCN)NC(=O)CNC(=O)[C@H](Cc4ccccc4)NC(=O)[C@H]([C@@H](C)CC)NC(=O)[C@H](CO)NC(=O)[C@H](CCCNC(=N)N)NC1=O)C(=O)N[C@@H](CCSC)C(=O)N[C@@H](CC(N)=O)C(=O)N[C@@H](CCCCN)C(=O)N[C@@H](CCCCN)C(=O)N3)C(=O)N[C@@H](CCCCN)C(=O)N[C@@H](CCC(N)=O)C(=O)N[C@@H](CCCCN)C(=O)N2 [compound 26] (H-NMDMRCSASVECKQKCLKAIRSIFGKCMNKKCKCYPR-NH2; disulfide 6-27, 12-32, 16-34)
Selectivity ratio Kv1.1/Kv1.3 (human Kv1.1): >13700
Selectivity ratio Kv1.2/Kv1.3 (human Kv1.2): 259
Selectivity ratio Kv1.6/Kv1.3 (human Kv1.6): 2851
IC50 (Rat whole blood): 0.82 nM

CCCC[C@@H]1NC(=O)[C@@H]2CSSC[C@H](NC(=O)[C@H](CCCNC(=N)N)NC(=O)[C@H](CCCC)NC(=O)[C@H](CC(=O)O)NC(=O)[C@H](CCCC)NC(=O)[C@@H](N)CC(N)=O)C(=O)N[C@@H](CO)C(=O)N[C@@H](Cc3c[nH]cn3)C(=O)N[C@@H](CO)C(=O)N[C@@H](C(C)C)C(=O)N[C@@H](CCC(=O)O)C(=O)N[C@H]3CSSC[C@H](NC(=O)[C@H](CCCCN)NC(=O)[C@H](CCCCN)NC(=O)[C@H](CC(N)=O)NC1=O)C(=O)N[C@@H](CCCCN)C(=O)N[C@H](C(=O)N[C@@H](Cc1ccc(O)cc1)C(=O)N1CCC[C@H]1C(=O)N[C@@H](CCCNC(=N)N)C(N)=O)CSSC[C@H](NC(=O)[C@H](CCCCN)NC(=O)[C@H](CCC(N)=O)NC(=O)[C@H](CCCCN)NC3=O)C(=O)N[C@@H](CC(C)C)C(=O)N[C@@H](CCCCN)C(=O)N[C@@H](C)C(=O)N[C@@H]([C@@H](C)CC)C(=O)NCC(=O)N[C@@H](CO)C(=O)N[C@@H]([C@@H](C)CC)C(=O)N[C@@H](Cc1ccccc1)C(=O)NCC(=O)N[C@@H](CCCCN)C(=O)N2 [compound 51] (H-N[Nle]D[Nle]RCSHSVECKQKCLKAIGSIFGKC[Nle]NKKCKCYPR-NH2; disulfide 6-27, 12-32, 16-34)
Selectivity ratio Kv1.1/Kv1.3 (human Kv1.1): >5600
Selectivity ratio Kv1.2/Kv1.3 (human Kv1.2): 1438
Selectivity ratio Kv1.6/Kv1.3 (human Kv1.6): 1134
IC50 (Rat whole blood): 0.83 nM

CC[C@H](C)[C@@H]1NC(=O)[C@H](C)NC(=O)[C@H](CCCCN)NC(=O)[C@H](CC(C)C)NC(=O)[C@@H]2CSSC[C@@H](C(=O)N[C@@H](Cc3ccc(O)cc3)C(=O)N3CCC[C@H]3C(=O)N[C@@H](CCCNC(=N)N)C(N)=O)NC(=O)[C@H](CCCCN)NC(=O)[C@@H]3CSSC[C@H](NC(=O)[C@H](CCC(=O)O)NC(=O)[C@H](C(C)C)NC(=O)[C@H](CO)NC(=O)[C@H](C)NC(=O)[C@H](CO)NC(=O)[C@@H](NC(=O)[C@H](CCCNC(=N)N)NC(=O)[C@H](CCSC)NC(=O)[C@H](CC(=O)O)NC(=O)[C@H](CCSC)NC(=O)[C@@H](N)CC(N)=O)CSSC[C@H](NC(=O)[C@H](CCCCN)NC(=O)CNC(=O)[C@H](Cc4ccccc4)NC(=O)[C@H]([C@@H](C)CC)NC(=O)[C@H](CO)NC(=O)CNC1=O)C(=O)N[C@@H](CCSC)C(=O)N[C@@H](CC(N)=O)C(=O)N[C@@H](CCCCN)C(=O)N[C@@H](CCCCN)C(=O)N3)C(=O)N[C@@H](CC(C)C)C(=O)N[C@@H](CCC(N)=O)C(=O)N[C@@H](CCCCN)C(=O)N2 [compound 33] (H-NMDMRCSASVECLQKCLKAIGSIFGKCMNKKCKCYPR-NH2; disulfide 6-27, 12-32, 16-34)
Selectivity ratio Kv1.1/Kv1.3 (human Kv1.1): >7400
Selectivity ratio Kv1.2/Kv1.3 (human Kv1.2): 2163
Selectivity ratio Kv1.6/Kv1.3 (human Kv1.6): >7400
IC50 (Rat whole blood): 0.76 nM

CC[C@H](C)[C@@H]1NC(=O)[C@H](C)NC(=O)[C@H](CCCCN)NC(=O)[C@H](CCCCN)NC(=O)[C@@H]2CSSC[C@@H](C(=O)N[C@@H](Cc3ccc(O)cc3)C(=O)N3CCC[C@H]3C(=O)N[C@@H](CCCNC(=N)N)C(N)=O)NC(=O)[C@H](CCCCN)NC(=O)[C@@H]3CSSC[C@H](NC(=O)[C@H](CCC(=O)O)NC(=O)[C@H](C(C)C)NC(=O)[C@H](CO)NC(=O)[C@H](C)NC(=O)[C@H](CO)NC(=O)[C@@H](NC(=O)[C@H](CCCNC(=N)N)NC(=O)[C@H](CCSC)NC(=O)[C@H](CC(=O)O)NC(=O)[C@H](CCSC)NC(=O)[C@@H](N)CC(N)=O)CSSC[C@H](NC(=O)[C@H](CCCCN)NC(=O)CNC(=O)[C@H](Cc4ccccc4)NC(=O)[C@H]([C@@H](C)CC)NC(=O)[C@H](CO)NC(=O)CNC1=O)C(=O)N[C@@H](CCSC)C(=O)N[C@@H](CC(N)=O)C(=O)N[C@@H](CCCCN)C(=O)N[C@@H](CCCCN)C(=O)N3)C(=O)N[C@@H](CCCCN)C(=O)N[C@@H](CCC(N)=O)C(=O)N[C@@H](CCCCN)C(=O)N2 [compound 24] (H-NMDMRCSASVECKQKCKKAIGSIFGKCMNKKCKCYPR-NH2; disulfide 6-27, 12-32, 16-34)
Selectivity ratio Kv1.1/Kv1.3 (human Kv1.1): >13500
Selectivity ratio Kv1.2/Kv1.3 (human Kv1.2): 202
Selectivity ratio Kv1.6/Kv1.3 (human Kv1.6): 1955
IC50 (Rat whole blood): 0.56 nM

CCCC[C@@H]1NC(=O)[C@@H]2CSSC[C@H](NC(=O)[C@H](CCCNC(=N)N)NC(=O)[C@H](CCCC)NC(=O)[C@H](CC(=O)O)NC(=O)[C@H](CCCC)NC(=O)[C@@H](N)CC(N)=O)C(=O)N[C@@H](CO)C(=O)N[C@@H](C)C(=O)N[C@@H](CO)C(=O)N[C@@H](CCCCN)C(=O)N[C@@H](CCC(=O)O)C(=O)N[C@H]3CSSC[C@H](NC(=O)[C@H](CCCCN)NC(=O)[C@H](CCCCN)NC(=O)[C@H](CC(N)=O)NC1=O)C(=O)N[C@@H](CCCCN)C(=O)N[C@H](C(=O)N[C@@H](Cc1ccc(O)cc1)C(=O)N1CCC[C@H]1C(=O)N[C@@H](CCCNC(=N)N)C(N)=O)CSSC[C@H](NC(=O)[C@H](CCCCN)NC(=O)[C@H](CCC(N)=O)NC(=O)[C@H](CCCCN)NC3=O)C(=O)N[C@@H](CC(C)C)C(=O)N[C@@H](CCCCN)C(=O)N[C@@H](C)C(=O)N[C@@H]([C@@H](C)CC)C(=O)NCC(=O)N[C@@H](CO)C(=O)N[C@@H]([C@@H](C)CC)C(=O)N[C@@H](Cc1ccccc1)C(=O)NCC(=O)N[C@@H](CCCCN)C(=O)N2 [compound 63] (H-N[Nle]D[Nle]RCSASKECKQKCLKAIGSIFGKC[Nle]NKKCKCYPR-NH2; disulfide 6-27, 12-32, 16-34)
Selectivity ratio Kv1.1/Kv1.3 (human Kv1.1): >9600
Selectivity ratio Kv1.2/Kv1.3 (human Kv1.2): 587
Selectivity ratio Kv1.6/Kv1.3 (human Kv1.6): 3929
IC50 (Rat whole blood): 0.68 nM
